Results taken from the supplement of paper PMC13380429.

Tests used:
Conditions in all cases: 72 h
HepG2 [1] = test: drug sensitivity score (DSS) for viability; higher = more toxic; extreme values may be limits of the assay
Caco-2 [2] = test: as above
Calu-3 [3] = test: as above
U2OS [4] = test: as above
Vero E6 [5] = test: as above
HepG2 [6] = test: cell viability relative to DMSO; higher = less toxic
Caco-2 [7] = test: as above
Calu-3 [8] = test: as above
U2OS [9] = test: as above
Vero E6 [10] = test: as above
HepG2 [11] = test: relative viability EC50 (midpoint between 100% and the lowest measured viability); higher = less toxic
Caco-2 [12] = test: as above
Calu-3 [13] = test: as above
U2OS [14] = test: as above
Vero E6 [15] = test: as above

Row | Compound | drug sensitivity score (HepG2 [1]) | drug sensitivity score (Caco-2 [2]) | drug sensitivity score (Calu-3 [3]) | drug sensitivity score (U2OS [4]) | drug sensitivity score (Vero E6 [5]) | cell viability (HepG2 [6]; 1 nM) [%] | cell viability (HepG2 [6]; 10 nM) [%] | cell viability (HepG2 [6]; 100 nM) [%] | cell viability (HepG2 [6]; 1000 nM) [%] | cell viability (HepG2 [6]; 10000 nM) [%] | cell viability (Caco-2 [7]; 1 nM) [%] | cell viability (Caco-2 [7]; 10 nM) [%] | cell viability (Caco-2 [7]; 100 nM) [%] | cell viability (Caco-2 [7]; 1000 nM) [%] | cell viability (Caco-2 [7]; 10000 nM) [%] | cell viability (Calu-3 [8]; 1 nM) [%] | cell viability (Calu-3 [8]; 10 nM) [%] | cell viability (Calu-3 [8]; 100 nM) [%] | cell viability (Calu-3 [8]; 1000 nM) [%] | cell viability (Calu-3 [8]; 10000 nM) [%] | cell viability (U2OS [9]; 1 nM) [%] | cell viability (U2OS [9]; 10 nM) [%] | cell viability (U2OS [9]; 100 nM) [%] | cell viability (U2OS [9]; 1000 nM) [%] | cell viability (U2OS [9]; 10000 nM) [%] | cell viability (Vero E6 [10]; 1 nM) [%] | cell viability (Vero E6 [10]; 10 nM) [%] | cell viability (Vero E6 [10]; 100 nM) [%] | cell viability (Vero E6 [10]; 1000 nM) [%] | cell viability (Vero E6 [10]; 10000 nM) [%] | relative viability EC50 (HepG2 [11]) [µM] | relative viability EC50 (Caco-2 [12]) [µM] | relative viability EC50 (Calu-3 [13]) [µM] | relative viability EC50 (U2OS [14]) [µM] | relative viability EC50 (Vero E6 [15]) [µM]
1 | Fc1ccc2c(CCNCc3cccc(OCC(F)(F)C(F)F)c3)c[nH]c2c1 [idalopirdine] | 0 | 0 | 0 | 0 | 0.5 | 97.5 | 93.7 | 99.2 | 94.8 | 88.2 | 96.3 | 97.5 | 91.5 | 87.1 | 109 | 90.3 | 102 | 91.4 | 101 | 99.7 | 95.3 | 97 | 99.7 | 95.4 | 96.7 | 101 | 95.2 | 98.7 | 95.2 | 84.9 | > 10 | > 10 | > 10 | > 10 | > 10
2 | C[C@@H](O)[C@H]1C(=O)N2C(C(=O)O)=C(SCCNC=N)C[C@H]12 [imipenem] | 0 | 0 | 0 | 0 | 0 | 98.7 | 98.5 | 96.2 | 100 | 107 | 97.2 | 98.4 | 98.2 | 92.6 | 106 | 88 | 87.6 | 107 | 86.3 | 93.4 | 99.1 | 98.2 | 102 | 97.4 | 97.2 | 97.9 | 102 | 89.2 | 100 | 110 | > 10 | > 10 | > 10 | > 10 | > 10
3 | N#CCC1(n2cc(-c3ncnc4[nH]ccc34)cn2)CN(C2CCN(C(=O)c3ccnc(C(F)(F)F)c3F)CC2)C1 [itacitinib] | 0 | 0 | 0 | 0 | 0 | 95.3 | 98.9 | 95 | 96.1 | 91.6 | 101 | 98.6 | 97.2 | 132 | 90.1 | 111 | 104 | 101 | 93.6 | 90.4 | 98.6 | 91 | 97.5 | 95.8 | 96 | 100 | 96.1 | 98.3 | 100 | 98.5 | > 10 | > 10 | > 10 | > 10 | > 10
4 | NC[C@H]1O[C@H](O[C@H]2[C@H](O)[C@@H](O[C@H]3O[C@H](CO)[C@@H](O)[C@H](N)[C@H]3O)[C@H](N)C[C@@H]2N)[C@H](O)[C@@H](O)[C@@H]1O [kanamycin] | 0 | 0 | 0 | 0 | 0 | 109 | 88.9 | 88 | 96.5 | 98.5 | 94.3 | 93.1 | 88.1 | 89.3 | 96.1 | 100 | 104 | 101 | 114 | 95.2 | 102 | 102 | 96.1 | 98.3 | 98.2 | 109 | 106 | 99.3 | 99 | 102 | > 10 | > 10 | > 10 | > 10 | > 10
5 | CC(Oc1c(Cl)cccc1Cl)C1=NCCN1 (stereo not given) [lofexidine] | 0 | 0 | 0 | 0 | 0 | 90.7 | 105 | 104 | 90.7 | 100 | 100 | 106 | 101 | 93.8 | 95.6 | 99.3 | 108 | 87.6 | 103 | 94.6 | 103 | 106 | 100 | 100 | 99.6 | 101 | 101 | 95.7 | 103 | 103 | > 10 | > 10 | > 10 | > 10 | > 10
6 | O=C(NC(=O)c1c(F)cccc1F)Nc1cc(Cl)c(OC(F)(F)C(F)C(F)(F)F)cc1Cl (stereo not given) [lufenuron] | 0 | 0 | 0 | 0 | 0 | 98.6 | 94.3 | 109 | 101 | 101 | 100 | 95.1 | 93.8 | 96.8 | 95 | 95.4 | 98.9 | 92.1 | 83.2 | 95.3 | 100 | 95.1 | 96.7 | 98.4 | 99.7 | 99.2 | 108 | 98.3 | 110 | 100 | > 10 | > 10 | > 10 | > 10 | > 10
7 | CCCCN(CCCC)CC(O)c1cc(Cl)cc2c1-c1ccc(Cl)cc1/C2=C/c1ccc(Cl)cc1 (stereo not given) [lumefantrine] | 0.1 | 0 | 0 | 0 | 0 | 98.9 | 113 | 107 | 108 | 84.2 | 99.8 | 92.6 | 101 | 94.5 | 89.5 | 82.9 | 102 | 90 | 102 | 94.4 | 101 | 101 | 103 | 103 | 95.2 | 102 | 102 | 102 | 105 | 91.2 | > 10 | > 10 | > 10 | > 10 | > 10
8 | COc1cccc2c1C(=O)c1c(O)c3c(c(O)c1C2=O)C[C@@](O)(C(=O)CO)C[C@@H]3O[C@H]1C[C@H](N2CCO[C@H](OC)C2)[C@H](O)[C@H](C)O1 [nemorubicin] | 48 | 35.1 | 38.4 | 44.1 | 46.1 | 55.4 | 0.1 | 6.3 | 3 | 1.5 | 88.8 | 24.6 | 30.4 | 32.6 | 24.5 | 69.2 | 21.2 | 35.1 | 31.5 | 30 | 91.8 | 1.3 | 0.9 | 0.3 | 1.3 | 72.6 | 2.4 | 2.8 | 0.8 | 2.7 | 0.0011 | 0.002 | 0.0012 | 0.0025 | 0.0016
9 | OCc1cccnc1 [nicotinyl-alcohol-tartrate] | 0 | 0 | 0 | 0 | 0 | 95.4 | 102 | 91.2 | 104 | 96.1 | 97.8 | 97 | 102 | 96.1 | 106 | 96.6 | 100 | 92.7 | 99.3 | 96.4 | 102 | 104 | 96.7 | 100 | 95.5 | 92.6 | 101 | 87.8 | 101 | 91.8 | > 10 | > 10 | > 10 | > 10 | > 10
10 | O=C1NCCN1c1ncc([N+](=O)[O-])s1 [niridazole] | 0 | 0 | 0 | 0 | 0.1 | 105 | 98.8 | 105 | 106 | 97.8 | 105 | 80.1 | 93.2 | 87.8 | 102 | 99.6 | 107 | 96.6 | 88 | 103 | 97.1 | 98.7 | 99.3 | 94.8 | 99.8 | 102 | 104 | 108 | 115 | 85.5 | > 10 | > 10 | > 10 | > 10 | > 10
11 | CC(C)C[C@@H](N)C(=O)N[C@H]1C(=O)N[C@@H](CC(N)=O)C(=O)N[C@H]2C(=O)N[C@H]3C(=O)N[C@H](C(=O)N[C@H](C(=O)O)c4cc(O)cc(O)c4-c4cc3ccc4O)[C@H](O)c3ccc(c(Cl)c3)Oc3cc2cc(c3O[C@@H]2O[C@H](CO)[C@@H](O)[C@H](O)[C@H]2O[C@H]2C[C@](C)(N)[C@H](O)[C@H](C)O2)Oc2ccc(cc2Cl)[C@H]1O [norvancomycin] | 0 | 0 | 0 | 0 | 0 | 102 | 95.8 | 97.3 | 86.9 | 97.7 | 91.9 | 93.8 | 104 | 95.7 | 98.5 | 102 | 100 | 104 | 97.9 | 91.9 | 100 | 104 | 96.6 | 102 | 102 | 109 | 94.8 | 102 | 97 | 104 | > 10 | > 10 | > 10 | > 10 | > 10
